The structures appear in SMILES notation.

The values that follow come from patent US12398097B2, “WDR5-MYC inhibitors” (Vanderbilt University, priority 2019, dated 2025).

The assay deals with WDR5 (Homo sapiens, UniProt P61964). Description: Competition-based fluorescence polarization anisotropy assay. To be noted: binding to WDR5; displacement of FITC-labeled small molecule probe (analogous to Example J2 or HCH-25) or peptide probe FITC-AHx-SEEEIDVVSV; pH 6.0; Ki converted from IC50. An outline of the steps:
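Competition fluorescence polarization anisotropy binding to WDR5 using a FITC-labeled peptide probe or a fluorescently labeled small-molecule probe. Buffer: 200 mM phosphate, 300 mM NaCl, 0.5 mM TCEP, 0.1% Chaps, pH 6.0. Displacement data were converted to Ki.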
A word on the Ki: it is the equilibrium dissociation constant of an inhibitor or competing ligand from its target. High values mean weaker binding, low ones tighter binding. `O=C(N[C@H]1CCOC1)c1cc(OC(F)(F)F)cc(NS(=O)(=O)c2cc(Br)ccc2O)c1O` [Example J168, (S)-3-((5-Bromo-2-hydroxyphenyl)sulfonamido)-2-hydroxy-N-(tetrahydrofuran-3-yl)-5-(trifluoromethoxy)benzamide] displayed a Ki of 460 nM.
Under `O=C(NCc1ccccn1)c1cc(Cl)cc(NS(=O)(=O)c2cc(Br)ccc2O)c1O` [Example J31, 3-((5-Bromo-2-hydroxyphenyl)sulfonamido)-5-chloro-2-hydroxy-N-(pyridin-2-ylmethyl)benzamide] stands 790 nM; under `COCCNC(=O)c1cc(F)cc(NS(=O)(=O)c2cc(Br)ccc2O)c1O` [Example J110, 3-((5-Bromo-2-hydroxyphenyl)sulfonamido)-5-fluoro-2-hydroxy-N-(2-methoxyethyl)benzamide], 2260 nM; under `N#CC1(c2cc(NS(=O)(=O)c3cc(Br)ccc3O)c(O)c(C(N)=O)c2)CCCCC1` [Example J232, 3-((5-Bromo-2-hydroxyphenyl)sulfonamido)-5-(l-cyanocyclohexyl)-2-hydroxybenzamide], 220 nM.
Under `O=C(O)c1cc(Cl)cc(NS(=O)(=O)c2cc(Br)cc3cccnc23)c1O` [Example J13, 3-((6-Bromoquinoline)-8-sulfonamido)-5-chloro-2-hydroxybenzoic acid] stands 780 nM; under `O=C(O)c1cc(C2CC2)cc(NS(=O)(=O)c2cc(Br)ccc2NC2CC2)c1O` [Example J73, 3-((5-Bromo-2-(cyclopropylamino)phenyl)sulfonamido)-5-cyclopropyl-2-hydroxybenzoic acid], 5980 nM; under `CCc1cc(Br)cc(S(=O)(=O)Nc2cc(Cl)cc(C(=O)NC3COC3)c2O)c1O` [HCH-58, 3-((5-Bromo-3-ethyl-2-hydroxyphenyl)sulfonamido)-5-chloro-2-hydroxy-N-(oxetan-3-yl)benzamide], 460 nM.
Under `CNC(=O)c1cc(F)cc(NS(=O)(=O)c2cc(Br)ccc2O)c1O` [Example J109, 3-((5-Bromo-2-hydroxyphenyl)sulfonamido)-5-fluoro-2-hydroxy-N-methylbenzamide] stands 3470 nM; under `COc1cc(Cl)c(Br)cc1S(=O)(=O)Nc1cc(C2CC2)cc(C(N)=O)c1O` [Example J105, 3-((5-Bromo-4-chloro-2-methoxyphenyl)sulfonamido)-5-cyclopropyl-2-hydroxybenzamide], 13000 nM.
As to `O=C(N[C@H]1CCOC1)c1c(O)c(NS(=O)(=O)c2cc(Br)ccc2O)cc(C2CC2)c1F` [Example J133, (S)-3-((5-Bromo-2-hydroxyphenyl)sulfonamido)-5-cyclopropyl-6-fluoro-2-hydroxy-N-(tetrahydrofuran-3-yl)benzamide], the affinity, expressed as Ki, was 4510 nM.
`COCCNC(=O)c1cc(C2CC2)cc(NS(=O)(=O)c2cc(Br)cc(Cl)c2O)c1F` [Example J157, 3-((5-Bromo-3-chloro-2-hydroxyphenyl)sulfonamido)-5-cyclopropyl-2-fluoro-N-(2-methoxyethyl)benzamide] yielded a Ki of 210 nM.
Under `O=C(NC1CCOC1)c1cc(C2CC2)cc(NS(=O)(=O)c2cc(Br)ccc2O)c1O` (stereo not drawn) [Example J90, 3-((5-Bromo-2-hydroxyphenyl)sulfonamido)-5-cyclopropyl-2-hydroxy-N-(tetrahydrofuran-3-yl)benzamide] stands 740 nM; under `CS(=O)(=O)c1cc(Cl)cc(NS(=O)(=O)c2cc(Br)ccc2O)c1` [Example S6, 5-Bromo-N-(3-chloro-5-(methylsulfonyl)phenyl)-2-hydroxybenzenesulfonamide], 1230 nM; under `COC[C@@H]1CCCN1C(=O)c1cc(OC(F)(F)F)cc(NS(=O)(=O)c2cc(Br)ccc2O)c1O` [Example J171, (S)-5-Bromo-2-hydroxy-N-(2-hydroxy-3-(2-(methoxymethyl)pyrrolidine-1-carbonyl)-5-(trifluoromethoxy)phenyl)benzenesulfonamide], 1040 nM.
Under `N#CC1(c2cc(NS(=O)(=O)c3cc(Br)cc(Cl)c3O)c(O)c(C(=O)O)c2)CCCCC1` [Example J234, 3-((5-Bromo-3-chloro-2-hydroxyphenyl)sulfonamido)-5-(1-cyanocyclohexyl)-2-hydroxybenzoic acid] stands 20 nM; under `CNC(=O)c1cc(Cl)cc(NS(=O)(=O)c2cc(Br)ccc2OC)c1O` [Example J44, 3-((5-Bromo-2-methoxyphenyl)sulfonamido)-5-chloro-2-hydroxy-N-methylbenzamide], 1260 nM.
On to `CNC(=O)c1cc(C2CC2)cc(NS(=O)(=O)c2cc(Br)cc(F)c2O)c1O` [Example J98, 3-((5-Bromo-3-fluoro-2-hydroxyphenyl)sulfonamido)-5-cyclopropyl-2-hydroxy-N-methylbenzamide], for which the Ki was 2320 nM.
Under `O=C(NC1CCOC1)c1c(O)c(NS(=O)(=O)c2cc(Br)ccc2O)cc(C2CC2)c1F` (stereo not drawn) [Example J131, 3-((5-Bromo-2-hydroxyphenyl)sulfonamido)-5-cyclopropyl-6-fluoro-2-hydroxy-N-(tetrahydrofuran-3-yl)benzamide] stands 2990 nM.
Under `CNC(=O)c1cc(C2(C#N)CCC2)cc(NS(=O)(=O)c2cc(Br)ccc2O)c1O` [Example J208, 3-((5-Bromo-2-hydroxyphenyl)sulfonamido)-5-(1-cyanocyclobutyl)-2-hydroxy-N-methylbenzamide] stands 390 nM; under `O=C(NCC1CCOC1)c1cc(OC(F)(F)F)cc(NS(=O)(=O)c2cc(Br)ccc2O)c1O` (stereo not drawn) [Example J166, 3-((5-Bromo-2-hydroxyphenyl)sulfonamido)-2-hydroxy-N-((tetrahydrofuran-3-yl)methyl)-5-(trifluoromethoxy)benzamide], 680 nM; under `COCCNC(=O)c1cc(Cl)cc(NS(=O)(=O)c2cc(Br)ccc2OC)c1O` [Example J45, 3-((5-Bromo-2-methoxyphenyl)sulfonamido)-5-chloro-2-hydroxy-N-(2-methoxyethyl)benzamide], 990 nM.
Under `COc1ccc(Br)cc1S(=O)(=O)Nc1cc(Cl)cc(C(=O)NCC2CCCO2)c1O` (stereo not drawn) [Example J65, 3-((5-Bromo-2-methoxyphenyl)sulfonamido)-5-chloro-2-hydroxy-N-((tetrahydrofuran-2-yl)methyl)benzamide] stands 1020 nM; under `O=C(NCCO)c1cc(C2CC2)cc(NS(=O)(=O)c2cc(Br)ccc2O)c1O` [Example J87, 3-((5-Bromo-2-hydroxyphenyl)sulfonamido)-5-cyclopropyl-2-hydroxy-N-(2-hydroxyethyl)benzamide], 590 nM; under `CS(=O)(=O)c1cc(Br)cc(NS(=O)(=O)c2cc(Br)cc(OC(F)(F)F)c2O)c1` [Example S3, 5-Bromo-N-(3-bromo-5-(methylsulfonyl)phenyl)-2-hydroxy-3-(trifluoromethoxy)benzenesulfonamide], 500 nM.
`O=C(NC1CC(O)C1)c1cc(OC(F)(F)F)cc(NS(=O)(=O)c2cc(Br)ccc2O)c1O` (mixture of isomers) [HCH-3, 3-((5-Bromo-2-hydroxyphenyl)sulfonamido)-2-hydroxy-N-(3-hydroxycyclobutyl)-5-(trifluoromethoxy)benzamide]: the Ki was 510 nM.
Under `CNC(=O)c1cc(OC(F)(F)F)cc(NS(=O)(=O)c2cc(Br)cc(Cl)c2O)c1O` [HCH-63, 3-((5-Bromo-3-chloro-2-hydroxyphenyl)sulfonamido)-2-hydroxy-N-methyl-5-(trifluoromethoxy)benzamide] stands 200 nM.
Under `CCc1cc(Br)cc(S(=O)(=O)Nc2cc(Cl)cc(C(=O)NC(C)C(N)=O)c2O)c1O` (stereo not drawn) [HCH-59, N-(1-Amino-1-oxopropan-2-yl)-3-((5-bromo-3-ethyl-2-hydroxyphenyl)sulfonamido)-5-chloro-2-hydroxybenzamide] stands 340 nM.
